# Values of other authors in patent US10934504B2, “Laundry treatment compositions comprising perfume and silica microparticles” (Conopco, Inc., priority 2016, dated 2021).
# Conditions: values taken from the Good Scents website
row,logKow,SMILES
1,5.7,CCCCCCOC(=O)c1ccccc1O [n-Hexyl salicylate]
2,4.9,CCCCCCCCCC(C)C=O (stereo not drawn) [C12 Aldehyde MNA]
3,3.4,C=C(C)[C@H]1CC=C(C)CC1 [Limonene]
4,3.6,CC(C=O)Cc1ccc(C(C)(C)C)cc1 (stereo not drawn) [Lilial]

# Continued, compound first:
row,SMILES,logKow
1,CC(=O)OC1CC2CC1C1CC=CC21 (stereo not drawn) [Verdyl acetate],2.2
2,CC(=O)/C=C/C1=C(C)CCCC1(C)C [β-Ionone],2.9
3,C=CC(C)CCCC(C)(C)O (stereo not drawn) [Dihydromyrcenol],2.9
4,c1ccc(CCOC2CCCCC2)cc1 [Phenafleur],3.8
5,CC(=O)OC(C)(C)Cc1ccccc1 [Dimethyl benzyl carbinyl acetate],2.7
6,CC(=O)c1cc2c(cc1C)C(C)(C)C(C)CC2(C)C (stereo not drawn) [Tonalid],4.8
7,CCCC(C)C(=O)OCC (stereo not drawn) [Manzanate],2.4
8,CC(=O)OCc1ccccc1 [Benzyl acetate],2.0
